Laboratory results as given in US8293774B2, “Optically active (R)-aryloxypropionic acid amides and herbicidal composition comprising same” (Kyung Nong Corporation, priority 2007, dated 2012).

What was measured:
Assay in all cases: Weed control test, foliage treatment (Test Example 1, Table 7)
[1] = tested on: ORYSA (Oryza sativa cv. Dongjin, rice); details: in vivo
Procedure: (§1) Seeds of rice, wheat, soy bean, barley, corn, common sorgum, barnyard grass, large crabgrass, creek grass, green foxtail and fall panicum were placed in sandy loam in 600 cm^2 pots and covered with soil. After keeping the pots in a greenhouse at 20 to 30° C. allowing growth of the plants to the 3-leaf stage of the barnyard grass, 2,000 l/ha of an emulsion obtained by diluting with water a mixture of 1 part by weight of a test compound, 5 parts by weight of acetone and 1 part by weight of an emulsifying agent (Tween 80, Junsei) was applied to the surface of the foliage of the plants. The plant damage at 10 days and 20 days after the foliage treatment was visually evaluated from the level of 1 to 100% by comparison with the untreated control: […]

[2] = tested on: TRZAW (Tritium aestivum L., wheat); details: in vivo
Procedure: as §1

[3] = tested on: GLXMA (Glycine max(L.) MERR, soy bean); details: in vivo
Procedure: as §1

[4] = tested on: HORVU (Hordeum vulgare L., barley); details: in vivo
Procedure: as §1

[5] = tested on: PANDI (Panium dichotomiflorum Michx, fall panicum); type: in vivo; details: Panicum dichotomiflorum, foliar, read-out: Plant damage (herbicidal activity), visually evaluated, PANDI; for pest or weed control at 25 g/ha: 0.025 kg/ha; for pest or weed control at 100 g/ha: 0.1 kg/ha; for pest or weed control at 200 g/ha: 0.2 kg/ha
Procedure: as §1

[6] = tested on: ECHOG (Echinoch crus-galli Beauv. var. caudata Kitagawa, barnyard grass); type: in vivo; details: Echinochloa crus-galli, foliar, 3-leaf stage, read-out: Plant damage (herbicidal activity), visually evaluated, ECHOG; for pest or weed control at 25 g/ha: 0.025 kg/ha; for pest or weed control at 100 g/ha: 0.1 kg/ha; for pest or weed control at 200 g/ha: 0.2 kg/ha
Procedure: as §1

[7] = tested on: SETVIR (Setaria viridis (L.) Beauv, green foxtail); type: in vivo; details: Setaria viridis, foliar, read-out: Plant damage (herbicidal activity), visually evaluated, SETVIR; for pest or weed control at 25 g/ha: 0.025 kg/ha; for pest or weed control at 100 g/ha: 0.1 kg/ha; for pest or weed control at 200 g/ha: 0.2 kg/ha
Procedure: as §1

[8] = tested on: DIGSA (Digitaria Sanguinalis (L.) SCOP, large crabgrass); type: in vivo; details: Digitaria sanguinalis, foliar, read-out: Plant damage (herbicidal activity), visually evaluated, DIGSA; for pest or weed control at 25 g/ha: 0.025 kg/ha; for pest or weed control at 100 g/ha: 0.1 kg/ha; for pest or weed control at 200 g/ha: 0.2 kg/ha
Procedure: as §1

[9] = tested on: SORBI (Andropogon sorghum, common sorgum); type: in vivo; details: Sorghum bicolor, foliar, read-out: Plant damage (herbicidal activity), visually evaluated, SORBI; for pest or weed control at 25 g/ha: 0.025 kg/ha; for pest or weed control at 100 g/ha: 0.1 kg/ha; for pest or weed control at 200 g/ha: 0.2 kg/ha
Procedure: as §1

[10] = tested on: ZEAMX (Zea mays L., corn); type: in vivo; details: Zea mays, foliar, read-out: Plant damage (herbicidal activity), visually evaluated, ZEAMX; for plant injury at 25 g/ha: 0.025 kg/ha; for plant injury at 100 g/ha: 0.1 kg/ha; for plant injury at 200 g/ha: 0.2 kg/ha
Procedure: as §1

[11] = tested on: ARTHIS (Arthraxon hispidus (Thunb.) Makino, creek grass); type: in vivo; details: Arthraxon hispidus, foliar, read-out: Plant damage (herbicidal activity), visually evaluated, ARTHIS; for pest or weed control at 25 g/ha: 0.025 kg/ha; for pest or weed control at 100 g/ha: 0.1 kg/ha; for pest or weed control at 200 g/ha: 0.2 kg/ha
Procedure: as §1

Compound | Plant damage (herbicidal activity), visually evaluated, TRZAW [2] | Plant damage (herbicidal activity), visually evaluated, GLXMA [3] | Plant damage (herbicidal activity), visually evaluated, HORVU [4] | pest or weed control at 25 g/ha [5] | pest or weed control at 100 g/ha [5] | pest or weed control at 200 g/ha [5] | pest or weed control at 25 g/ha [6] | pest or weed control at 100 g/ha [6] | pest or weed control at 200 g/ha [6] | pest or weed control at 25 g/ha [7] | pest or weed control at 100 g/ha [7] | pest or weed control at 200 g/ha [7] | pest or weed control at 25 g/ha [8] | pest or weed control at 100 g/ha [8] | pest or weed control at 200 g/ha [8] | pest or weed control at 25 g/ha [9] | pest or weed control at 100 g/ha [9] | pest or weed control at 200 g/ha [9] | plant injury at 25 g/ha [10] | plant injury at 100 g/ha [10] | also measured
C[C@@H](Oc1ccc(Oc2ccc(C#N)cc2F)cc1)C(=O)Nc1nc2ccc(F)cc2s1 [Example 23, (R)-2-[4-(4-cyano-2-fluorophenoxy)phenoxy]propionic acid-N-(6-fluoro-2-benzothiazolyl)amide] | 0% | 0% | 0% | 0% | 0% | 10% | 20% | 50% | 50% | 0% | 0% | 20% | 0% | 20% | 20% | 0% | 20% | 20% | 10% | 90% | Plant damage (herbicidal activity), visually evaluated, ORYSA [1]: 0%; plant injury at 200 g/ha [10]: 90%; pest or weed control at 25 g/ha [11]: 0%; pest or weed control at 100 g/ha [11]: 0%; pest or weed control at 200 g/ha [11]: 10%
C[C@@H](Oc1ccc(C(F)=C(c2ccc(F)cc2)C(F)(F)F)cc1)C(=O)Nc1ccccc1F [Example 40, (R)-2-[4-(1,3,3,3-tetrafluoro-2-(4-fluorophenyl)prop-1-enyl)phenoxy]propionic acid-N-(2-fluorophenyl)amide] | 0% | 0% | 0% | 0% | 0% | 10% | 20% | 70% | 90% | 0% | 0% | 20% | 70% | 90% | 90% | 0% | 20% | 50% | 90% | 100% | Plant damage (herbicidal activity), visually evaluated, ORYSA [1]: 0%; plant injury at 200 g/ha [10]: 100%; pest or weed control at 25 g/ha [11]: 0%; pest or weed control at 100 g/ha [11]: 0%; pest or weed control at 200 g/ha [11]: 10%
C[C@@H](Oc1ccc(OC(F)=Cc2ccc(F)cc2)cc1)C(=O)Nc1nc2cc(Cl)ccc2o1 [Example 52, (R)-2-[4-(1-fluoro-2-(4-fluorophenyl)vinyloxy)phenoxy]propionic acid-N-(5-chloro-2-benzoxazolyl)amide] | 0% | 0% | 0% | 0% | 0% | 0% | 0% | 0% | 20% | 0% | 0% | 10% | 0% | 0% | 10% | 0% | 0% | 0% | 10% | 30% | plant injury at 200 g/ha [10]: 30%; pest or weed control at 25 g/ha [11]: 0%; pest or weed control at 100 g/ha [11]: 0%; pest or weed control at 200 g/ha [11]: 0%
